Assay results taken from ChEMBL document CHEMBL1201862, “PubChem BioAssay data set” (2004).
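Following 48 hours of exposure in 96-well plates, responses at five concentrations were used to interpolate endpoints linearly. Abbreviation: GI50, concentration required for 50% inhibition of growth.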 Calls of active or inactive are those of the source. Cut-off read from the data, not from the text of the source: active = GI50 up to about 1.1 µM and inactive = higher.

What was measured:
Test in all cases: NCI tumour cell line growth inhibition, 48 h
U-251 = tested on: U-251
EKVX = tested on: EKVX
SF-295 = tested on: SF-295
SK-MEL-28 = tested on: SK-MEL-28
OVCAR-5 = tested on: OVCAR-5
KM12 = tested on: KM12
SR = tested on: SR
NCI-H460 = tested on: NCI-H460
COLO 205 = tested on: COLO 205
K562 = tested on: K562
HOP-92 = tested on: HOP-92
HT-29 = tested on: HT-29
HCT-116 = tested on: HCT-116
SNB-75 = tested on: SNB-75
HL-60 = tested on: HL-60
HCT-15 = tested on: HCT-15
SK-MEL-2 = tested on: SK-MEL-2
HOP-62 = tested on: HOP-62
CAKI-1 = tested on: CAKI-1
MDA-N = tested on: MDA-N

| Compound | GI50 (U-251) | GI50 (EKVX) | GI50 (SF-295) | GI50 (SK-MEL-28) | GI50 (OVCAR-5) | GI50 (KM12) | GI50 (SR) | GI50 (NCI-H460) | GI50 (COLO 205) | GI50 (K562) | GI50 (HOP-92) | GI50 (HT-29) | GI50 (HCT-116) | GI50 (SNB-75) | GI50 (HL-60) | GI50 (HCT-15) | GI50 (SK-MEL-2) | GI50 (HOP-62) | GI50 (CAKI-1) | GI50 (MDA-N) |
| --- | --- | --- | --- | --- | --- | --- | --- | --- | --- | --- | --- | --- | --- | --- | --- | --- | --- | --- | --- | --- |
| COC1(OC)c2ccccc2C2(O)c3ccccc3C(=O)C12 (centres undefined) | 43 µM (inactive) | 48.8 µM (inactive) | 54 µM (inactive) | > 100 µM (inactive) | > 100 µM (inactive) | 39.9 µM (inactive) | 22.9 µM (inactive) | 26.4 µM (inactive) | 13.4 µM (inactive) | 12.6 µM (inactive) | 46.6 µM (inactive) | 55.5 µM (inactive) | 70.8 µM (inactive) | 29.3 µM (inactive) | 13.5 µM (inactive) | 25.3 µM | 38.1 µM (inactive) | – | – | – |
| CC(=O)NNc1nc(C)c(C(=O)NNC(=O)C(=O)Nc2ccc(Cl)c([N+](=O)[O-])c2)s1 | 50.9 µM (inactive) | > 100 µM (inactive) | 74.8 µM (inactive) | > 100 µM (inactive) | > 100 µM (inactive) | 88.9 µM (inactive) | 35.1 µM (inactive) | > 100 µM (inactive) | > 100 µM (inactive) | 26.2 µM (inactive) | 43.3 µM (inactive) | > 100 µM (inactive) | 85.3 µM (inactive) | – | 39 µM (inactive) | 49.3 µM | > 100 µM (inactive) | > 100 µM (inactive) | > 100 µM (inactive) | – |
| Cc1ccc(C)c(NC(=O)C(=O)CC(=O)c2cccc3ccccc23)c1 | > 100 µM (inactive) | > 100 µM (inactive) | > 100 µM (inactive) | > 100 µM (inactive) | > 100 µM (inactive) | > 100 µM (inactive) | > 100 µM (inactive) | > 100 µM (inactive) | > 100 µM (inactive) | > 100 µM (inactive) | > 100 µM (inactive) | > 100 µM (inactive) | > 100 µM (inactive) | > 100 µM (inactive) | > 100 µM (inactive) | > 100 µM | > 100 µM (inactive) | > 100 µM (inactive) | > 100 µM (inactive) | – |
| O=C(NN1C(=O)CS(=O)(=O)C1c1cccc(F)c1)c1ccncc1 (centres undefined) | > 10 µM (inactive) | – | > 100 µM (inactive) | > 100 µM (inactive) | > 100 µM (inactive) | > 100 µM (inactive) | > 100 µM (inactive) | > 100 µM (inactive) | > 100 µM (inactive) | – | > 100 µM (inactive) | > 100 µM (inactive) | > 100 µM (inactive) | 83.8 µM (inactive) | > 100 µM (inactive) | > 100 µM | > 100 µM (inactive) | > 100 µM (inactive) | > 100 µM (inactive) | – |
| Cc1ccc(S(=O)(=O)N2CCCSCCSCCCSCC2)cc1 | > 100 µM (inactive) | > 100 µM (inactive) | > 100 µM (inactive) | > 100 µM (inactive) | > 100 µM (inactive) | > 100 µM (inactive) | > 100 µM (inactive) | > 100 µM (inactive) | > 100 µM (inactive) | > 100 µM (inactive) | > 100 µM (inactive) | > 100 µM (inactive) | > 100 µM (inactive) | 86.7 µM (inactive) | > 100 µM (inactive) | > 100 µM | – | > 100 µM (inactive) | – | – |
| Cc1ccc(S(=O)(=O)N/N=C(\C(=O)Nc2cccc([N+](=O)[O-])c2)c2nc3ccc([N+](=O)[O-])cc3nc2O)cc1 | 70.3 µM (inactive) | 33.5 µM (inactive) | 29 µM (inactive) | > 100 µM (inactive) | 46.3 µM (inactive) | 37.9 µM (inactive) | 34 µM (inactive) | 33.5 µM (inactive) | 28.2 µM (inactive) | 7.38 µM (inactive) | > 100 µM (inactive) | 53 µM (inactive) | 27.5 µM (inactive) | – | – | 16.3 µM | > 100 µM (inactive) | 81.8 µM (inactive) | 23.2 µM (inactive) | – |
| CCCCCCCCCCCCC/C=C1\C[C@H](O)COC1=O | 17.7 µM (inactive) | 17.5 µM (inactive) | 18.1 µM (inactive) | 16.2 µM (inactive) | 19.2 µM (inactive) | 16.3 µM (inactive) | 18.6 µM (inactive) | 17.3 µM (inactive) | – | 15.9 µM (inactive) | 11.6 µM (inactive) | 15.7 µM (inactive) | 15.9 µM (inactive) | 15.9 µM (inactive) | 19.8 µM (inactive) | 16.5 µM | 16.6 µM (inactive) | 16.6 µM (inactive) | 18.9 µM (inactive) | – |
| N#CC(/C(CCCC(=O)Nc1cccc([N+](=O)[O-])c1)=N\NC(=O)c1c(O)ccc2ccccc12)c1nc2ccccc2s1 (centres undefined) | 16.3 µM (inactive) | 35.4 µM (inactive) | 28.6 µM (inactive) | 21.5 µM (inactive) | 37.7 µM (inactive) | 28.8 µM (inactive) | 17.5 µM (inactive) | 13.7 µM (inactive) | 30.1 µM (inactive) | 7.89 µM (inactive) | 53.1 µM (inactive) | 37 µM (inactive) | 8.43 µM (inactive) | 10.7 µM (inactive) | 3.16 µM (inactive) | – | 27.1 µM (inactive) | 27.8 µM (inactive) | 36.7 µM (inactive) | – |
| COc1cc2c(cc1O)C(C)Cc1cc3c(cc1N(C)CC2)OCO3 (centres undefined) | 4.01 µM (inactive) | 4.26 µM (inactive) | 2.78 µM (inactive) | 6.22 µM (inactive) | 23.1 µM (inactive) | 4.15 µM (inactive) | 4.45 µM (inactive) | 3.35 µM (inactive) | 24.2 µM (inactive) | 2.8 µM (inactive) | 4.66 µM (inactive) | 12.9 µM (inactive) | 4.04 µM (inactive) | 2.45 µM (inactive) | 4.61 µM (inactive) | 3.94 µM | 4.44 µM (inactive) | 10.6 µM (inactive) | 12.1 µM (inactive) | – |
| N=c1oc2ccccc2cc1C(=O)Nc1nccs1 | 33 µM (inactive) | 25.1 µM (inactive) | 35.6 µM (inactive) | 44.5 µM (inactive) | > 69.3 µM (inactive) | 34.3 µM (inactive) | 3.24 µM (inactive) | 26.7 µM (inactive) | 14.6 µM (inactive) | 13.9 µM (inactive) | 32.5 µM (inactive) | 46.6 µM (inactive) | 26.8 µM (inactive) | 35.6 µM (inactive) | 0.91 µM (active) | 24.8 µM | 26.9 µM (inactive) | 18.8 µM (inactive) | 13.4 µM (inactive) | – |
| CCC(=O)OC[n+]1ccc2c(C)c3[nH]c4ccc(OC)cc4c3c(C)c2c1 | 0.0547 µM (active) | – | 0.0738 µM (active) | 0.759 µM (active) | 0.299 µM (active) | 0.0875 µM (active) | 0.0134 µM (active) | 0.0199 µM (active) | 0.0906 µM (active) | 0.132 µM (active) | 0.0556 µM (active) | 0.0568 µM (active) | 0.0182 µM (active) | 0.434 µM (active) | 1.66 µM (inactive) | – | 0.291 µM (active) | – | 0.188 µM (active) | – |
| COc1ccc(C(=O)OC2C=COC(C)C2OC(=O)c2ccc(OC)cc2)cc1 (centres undefined) | 36.8 µM (inactive) | 36.9 µM (inactive) | 33.2 µM (inactive) | 16.4 µM (inactive) | 77.1 µM (inactive) | 19.1 µM (inactive) | 16.1 µM (inactive) | 40.7 µM (inactive) | 42.8 µM (inactive) | 17 µM (inactive) | 17.5 µM (inactive) | 22.2 µM (inactive) | 10.2 µM (inactive) | 12.4 µM (inactive) | 10.6 µM (inactive) | 14.9 µM | 17.5 µM (inactive) | > 83.6 µM (inactive) | 28.8 µM (inactive) | – |
| CC1OC(n2ccc3ccc([N+](=O)[O-])cc32)C(O)C(O)C1O (centres undefined) | > 100 µM (inactive) | > 100 µM (inactive) | > 100 µM (inactive) | > 100 µM (inactive) | > 100 µM (inactive) | > 100 µM (inactive) | > 100 µM (inactive) | > 100 µM (inactive) | > 100 µM (inactive) | > 100 µM (inactive) | > 100 µM (inactive) | > 100 µM (inactive) | > 100 µM (inactive) | > 100 µM (inactive) | > 100 µM (inactive) | > 100 µM | > 100 µM (inactive) | > 100 µM (inactive) | > 100 µM (inactive) | – |
| Cc1cccc(N/C(=C(/C(Cl)=C(Cl)Cl)[N+](=O)[O-])n2nnc3ccccc32)c1 | 14 µM (inactive) | 18.6 µM (inactive) | 16.9 µM (inactive) | 14.9 µM (inactive) | 16.6 µM (inactive) | 14.9 µM (inactive) | – | 20.7 µM (inactive) | 17.1 µM (inactive) | 35 µM (inactive) | – | 17.3 µM (inactive) | 18.9 µM (inactive) | – | – | 18.4 µM | 19.1 µM (inactive) | 18 µM (inactive) | 17.5 µM (inactive) | 23.5 µM (inactive) |
| CC1=CCC[C@@]2(C)C(CC[C@@H]2C(C)/C=C/C(C)C)c2ccc(cc2C(=O)O)C[C@@H](O)CC1 (some centres undefined) | 3.94 µM (inactive) | – | 9.27 µM (inactive) | 14.7 µM (inactive) | 16.4 µM (inactive) | 11 µM (inactive) | 13.5 µM (inactive) | 7.01 µM (inactive) | – | 9.89 µM (inactive) | 14.4 µM (inactive) | 5.13 µM (inactive) | 5.21 µM (inactive) | 13.8 µM (inactive) | 9.79 µM (inactive) | 5.07 µM | 17.1 µM (inactive) | 20 µM (inactive) | 17 µM (inactive) | – |
| CN(C)CCNC(=O)c1cccc2nc3c(Cl)cccc3nc12 | 5.18 µM (inactive) | 8.61 µM (inactive) | 4.8 µM (inactive) | 4.7 µM (inactive) | 7.93 µM (inactive) | 5.75 µM (inactive) | 1.51 µM (inactive) | – | 3.75 µM (inactive) | 2.31 µM (inactive) | 2.84 µM (inactive) | 3.18 µM (inactive) | 3.16 µM (inactive) | 7.48 µM (inactive) | 6.43 µM (inactive) | 4.08 µM | 5.22 µM (inactive) | 5.66 µM (inactive) | > 20.7 µM (inactive) | – |
